In patent US9181233B2, “Inhibitors of glutaminyl cyclase” (PROBIODRUG AG, priority 2010, dated 2015):

Molecular target: hQC (Homo sapiens (Human), UniProt Q16769)
Experiment: QC inhibitor assay (hQC inhibition, IC50 and Ki determination)
Format: biochemical
Conditions: for Ki: competitive inhibition fit
Procedure: All measurements were performed with a BioAssay Reader HTS-7000Plus for microplates (Perkin Elmer) at 30° C. QC activity was evaluated fluorometrically using H-Gln-βNA. The samples consisted of 0.2 mM fluorogenic substrate, 0.25 U pyroglutamyl aminopeptidase (Unizyme, Hørsholm, Denmark) in 0.2 M Tris/HCl, pH 8.0 containing 20 mM EDTA and an appropriately diluted aliquot of QC in a final volume of 250 μl. Excitation/emission wavelengths were 320/410 nm. The assay reactions were initiated by addition of glutaminyl cyclase. QC activity was determined from a standard curve of β-naphthylamine under assay conditions. One unit is defined as the amount of QC catalyzing the formation of 1 μmol pGlu-βNA from H-Gln-βNA per minute under the described conditions.
In a second fluorometric assay, QC was activity determined using H-Gln-AMC as substrate. Reactions were carried out at 30° C. utilizing the NOVOStar reader for microplates (BMG labtechnologies). The samples consisted of varying concentrations of the fluorogenic substrate, 0.1 U pyroglutamyl aminopeptidase (Qiagen) in 0.05 M Tris/HCl, pH 8.0 containing 5 mM EDTA and an appropriately diluted aliquot of QC in a final volume of 250 μl. Excitation/emission wavelengths were 380/460 nm. The assay reactions were initiated by addition of glutaminyl cyclase. QC activity was determined from a standard curve of 7-amino-4-methylcoumarin under assay conditions. The kinetic data were evaluated using GraFit software.
This novel assay was used to determine the kinetic parameters for most of the QC substrates. […] Samples consisted of the respective QC substrate, 0.3 mM NADH, 14 mM α-Ketoglutaric acid and 30 U/ml glutamate dehydrogenase in a final volume of 250 μl. Reactions were started by addition of QC and perused by monitoring of the decrease in absorbance at 340 nm for 8-15 min.
The initial velocities were evaluated and the enzymatic activity was determined from a standard curve of ammonia under assay conditions. All samples were measured at 30° C., using either the […]luor Plus or the Sunrise (both from TECAN) reader for microplates. Kinetic data was evaluated using GraFit software.
For inhibitor testing, the sample composition was the same as described above, except of the putative inhibitory compound added. For a rapid test of QC-inhibition, samples contained 4 mM of the respective inhibitor and a substrate concentration at 1 KM. For detailed investigations of the inhibition and determination of Ki-values, influence of the inhibitor on the auxiliary enzymes was investigated first. […] The inhibitory constant was evaluated by fitting the set of progress curves to the general equation for competitive inhibition using GraFit software.

Sequence of hQC (Q16769 29-361): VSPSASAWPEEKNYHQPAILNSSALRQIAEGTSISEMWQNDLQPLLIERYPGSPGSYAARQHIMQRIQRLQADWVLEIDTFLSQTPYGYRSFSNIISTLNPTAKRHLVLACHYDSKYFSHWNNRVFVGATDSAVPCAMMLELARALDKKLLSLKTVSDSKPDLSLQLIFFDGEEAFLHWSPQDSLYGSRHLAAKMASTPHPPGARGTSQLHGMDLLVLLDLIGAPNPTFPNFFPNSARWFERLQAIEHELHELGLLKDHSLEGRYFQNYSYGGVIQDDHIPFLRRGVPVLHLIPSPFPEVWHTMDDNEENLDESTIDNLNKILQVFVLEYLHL

SMILES	IC50 [nM]	Ki [nM]
COc1ccc(CCc2nnc(-c3ccc4[nH]cnc4c3)s2)cc1Cl [Example 52, 5-(5-(3-Chloro-4-methoxyphenethyl)-1,3,4-thiadiazol-2-yl)-1H-benzo[d]imidazole]	680	50
Fc1cccc(CCc2nnc(-c3ccc4[nH]cnc4c3)s2)c1 [Example 59, 5-(5-(3-fluorophenethyl)-1,3,4-thiadiazol-2-yl)-1H-benzo[d]imidazole]	560	120
COc1ccc(CCc2nnc(-c3ccc4[nH]cnc4c3)o2)cc1Cl [Example 39, 5-(5-(3-Chloro-4-methoxyphenethyl)-1,3,4-oxadiazol-2-yl)-1H-benzo[d]imidazole]	800	130
c1ccc(SCn2cc(-c3ccc4[nH]cnc4c3)nn2)cc1 [Example 84, 5-(1-((Phenylthio)methyl)-1H-1,2,3-triazol-4-yl)-1H-benzo[d]imidazole]	570	120
COc1cc(CCc2nnc(-c3ccc4[nH]cnc4c3)s2)cc(OC)c1OC [Example 55, 5-(5-(3,4,5-Trimethoxyphenethyl)-1,3,4-thiadiazol-2-yl)-1H-benzo[d]imidazole]	490	80
COc1ccc(OC)c(CCc2nnc(-c3ccc4[nH]cnc4c3)s2)c1 [Example 62, 5-(5-(2,5-Dimethoxyphenethyl)-1,3,4-thiadiazol-2-yl)-1H-benzo[d]imidazole]	480	80
COc1ccc(Cn2cnnc2-c2ccc3[nH]cnc3c2)cc1 [Example 8, 5-(4-(4-Methoxybenzyl)-4H-1,2,4-triazol-3-yl)-1H-benzo[d]imidazole]	640	110
COc1cccc(CCc2nnc(-c3ccc4[nH]cnc4c3)s2)c1Cl [Example 63, 5-(5-(2-Chloro-3-methoxyphenethyl)-1,3,4-thiadiazol-2-yl)-1H-benzo[d]imidazole]	220	100
Clc1ccccc1Cn1cnnc1-c1ccc2[nH]cnc2c1 [Example 9, 5-(4-(2-Chlorobenzyl)-4H-1,2,4-triazol-3-yl)-1H-benzo[d]imidazole]	760	200
Fc1ccc(CCc2nnc(-c3ccc4[nH]cnc4c3)s2)cc1F [Example 58, 5-(5-(3,4-Difluorophenethyl)-1,3,4-thiadiazol-2-yl)-1H-benzo[d]imidazole]	720	140
COc1ccccc1CCc1nnc(-c2ccc3[nH]cnc3c2)s1 [Example 61, 5-(5-(2-Methoxyphenethyl)-1,3,4-thiadiazol-2-yl)-1H-benzo[d]imidazole]	760	170
Clc1cccc(Cn2cnnc2-c2ccc3[nH]cnc3c2)c1Cl [Example 22, 5-(4-(2,3-Dichlorobenzyl)-4H-1,2,4-triazol-3-yl)-1H-benzo[d]imidazole]	520	120
c1ccc(Oc2ccc(Cn3cnnc3-c3ccc4[nH]cnc4c3)cc2)cc1 [Example 10, 5-(4-(4-phenoxybenzyl)-4H-1,2,4-triazol-3-yl)-1H-benzo[d]imidazole]	480	80
COc1cccc(CCc2nnc(-c3ccc4[nH]cnc4c3)s2)c1 [Example 60, 5-(5-(3-Methoxyphenethyl)-1,3,4-thiadiazol-2-yl)-1H-benzo[d]imidazole]	450	40
COc1ccc(Cn2cnnc2-c2ccc3[nH]cnc3c2)cc1Cl [Example 24, 5-(4-(3-Chloro-4-methoxybenzyl)-4H-1,2,4-triazol-3-yl)-1H-benzo[d]imidazole]	850	230
c1ccc(SCc2nnc(-c3ccc4[nH]cnc4c3)s2)cc1 [Example 65, 5-(5-((Phenylthio)methyl)-1,3,4-thiadiazol-2-yl)-1H-benzo[d]imidazole]	530	120
CSc1ccc(CCc2nnc(-c3ccc4[nH]cnc4c3)s2)cc1 [Example 50, 5-(5-(4-(Methylthio)phenethyl)-1,3,4-thiadiazol-2-yl)-1H-benzo[d]imidazole]	760	80
